The source made the active and inactive calls. No stated cut-off is given here; in the data, actives have a measured IC50 and inactives only a lower limit.
target: Envelope glycoprotein gp160 (Human immunodeficiency virus 1, UniProt Q6QLK5); assay: inhibitors of HIV fusion peptide binding, primary screen, biochemical, uHTS, fluorescence dequenching (AID 1986)
Sequence (Q6QLK5 whole entry, the tested form may be a part): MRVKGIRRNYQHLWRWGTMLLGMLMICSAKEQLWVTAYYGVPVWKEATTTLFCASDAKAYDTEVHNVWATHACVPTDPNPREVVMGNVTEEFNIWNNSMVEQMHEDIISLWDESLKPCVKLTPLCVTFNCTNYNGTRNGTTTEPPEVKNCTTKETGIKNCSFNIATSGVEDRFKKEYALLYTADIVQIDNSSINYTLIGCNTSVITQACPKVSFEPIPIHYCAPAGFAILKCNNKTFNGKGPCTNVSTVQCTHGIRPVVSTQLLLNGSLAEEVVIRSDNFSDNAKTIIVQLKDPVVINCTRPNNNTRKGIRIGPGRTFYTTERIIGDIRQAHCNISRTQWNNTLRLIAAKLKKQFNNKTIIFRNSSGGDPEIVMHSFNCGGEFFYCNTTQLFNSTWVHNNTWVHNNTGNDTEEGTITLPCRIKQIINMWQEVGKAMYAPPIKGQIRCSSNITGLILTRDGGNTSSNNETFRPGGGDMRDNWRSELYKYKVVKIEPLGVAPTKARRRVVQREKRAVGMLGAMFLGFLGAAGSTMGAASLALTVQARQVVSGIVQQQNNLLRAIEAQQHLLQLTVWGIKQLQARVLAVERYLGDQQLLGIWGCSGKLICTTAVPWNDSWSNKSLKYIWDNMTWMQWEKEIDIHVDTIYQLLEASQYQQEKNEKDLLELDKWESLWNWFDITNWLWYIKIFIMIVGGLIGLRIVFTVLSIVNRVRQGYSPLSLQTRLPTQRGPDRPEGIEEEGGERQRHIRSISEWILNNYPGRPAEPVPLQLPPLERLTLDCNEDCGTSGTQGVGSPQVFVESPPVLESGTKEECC

SMILES	IC50
O=C(CSc1nc2ccccc2c(=O)n1Cc1ccccc1)Nc1ccc(Br)cc1C(=O)O	14.4 µM (active)
Cc1ccc(F)c(NC(=O)/C(C#N)=C(\O)c2ccc(C(C)(C)C)cc2)c1	19.6 µM (active)
O=c1/c(=C\c2cc([N+](=O)[O-])cc([N+](=O)[O-])c2O)sc2nc3ccccc3n12	6.01 µM (active)
